Values of other authors as cited in patent US12029740B2 (NANOCOPOEIA, LLC, priority 2020, dated 2024).
Structures can show the parent of a compound that is named as a salt.

Assays:
[1] = low/moderate aqueous solubility and low permeability

Row | Structure (SMILES) | Biopharmaceutical Classification System (BCS) class [1] | solubility with increasing pH
1 | Cc1cn(-c2cc(NC(=O)c3ccc(C)c(Nc4nccc(-c5cccnc5)n4)c3)cc(C(F)(F)F)c2)cn1 [Nilotinib monohydrochloride monohydrate] | Class IV | 
2 | Cc1cn(-c2cc(NC(=O)c3ccc(C)c(Nc4nccc(-c5cccnc5)n4)c3)cc(C(F)(F)F)c2)cn1 [nilotinib, 4-methyl-N-[3-(4-methyl-1H-imidazol-1-yl)-5-(trifluoromethyl)phenyl]-3-[[4-(3-pyridinyl)-2-pyrimidinyl]amino]-benzamide] |  | significantly decreases
